Where two headings read alike, the source gives them in different places.
Key:
LEC [1] = assay: cells; format: cell-based, human; conditions: 1 μM in 0.1% DMSO; for activity at 1 µM: Homo sapiens
Method: (§1) Human umbilical vein endothelial cells (HUVEC) were purchased from PromoCell. […] HUVEC and LEC were cultured in endothelial basal medium EBM (Cambrex) supplemented with 20% fetal bovine serum (Invitrogen), antibiotic-antimycotics (100 U/ml penicillin, 100 μg/ml streptomycin, 250 ng/ml amphotericin; Invitrogen). 2 mM L-glutamine (Invitrogen), 10 μg/ml hydrocortisone (Fluka) and 25 μg/ml N^6,2′-O-dibutyryladenosine 3′,5′-cyclic monophosphate sodium salt (Fluka) for up to eleven passages.
(§2) The effect of the selected chemicals on the formation of tube-like structures was performed as follows. […] After overnight incubation at 37° C. the treated cell cultures were fixed with 4% paraformaldehyde. Each chemical treatment was performed in triplicate and the experiment was repeated at least three times. Three representative images of hotspots with tube-like structures were taken per well using a digital camera (AxioCam MRm, Carl Zeiss) mounted on an inverted microscope (Axiovert 200M, Carl Zeiss). The length of the tube-like structures was measured using the IPLab software (BD Biosciences). For each experimental condition, results are represented as average total tube length (μm) per area (three image fields).
(§3) The effects of the selected compounds on endothelial tube formation was assessed after over treatment of LEC and HUVEC cultures at a compound concentration of 1 μM in 0.1% DMSO. The length of the tube-like structures was measured using the IPLab software.

HUVEC [2] = assay: HUVEC tube formation assay; format: cell-based, human; conditions: 1 μM in 0.1% DMSO; for activity at 1 µM: Homo sapiens, HUVEC
Method: as §1, §2, §3

LEC [3] = assay: LEC cell proliferation assay; format: cell-based, human; conditions: 10 μM in 0.1% DMSO, 48 hours; for activity at 10 µM: Homo sapiens, 48 h, read-out: LEC proliferation
Method: as §1
(§4) The intensity of fluorescence, which is proportional to the number of viable cells, was measured using a microplate reader (SpectraMax Gemini EM; Molecular Devices). The chemical treatments were performed in five replicates.
(§5) The cell proliferation assays were performed by treating the endothelial cell cultures with compounds at a screening dose of 10 μM in 0.1% DMSO for 48 hours (FIG. 6a; Table 10).

[4] = test system: blood vessel development and/or lymphangiogenesis in Xenopus embryos; format: in vivo, Xenopus laevis; conditions: for blood vessel development phenotype (apj expression, in words): 20 μM from stage 31, fixed at stage 35/36; for ISV phenotype: intersomitic vessels; for PCV phenotype: posterior cardinal vein; for VVN phenotype: vitelline vein network; for lymph vessel development phenotype (vegfr3 expression, in words): 20 μM from stage 31, fixed at stage 42; for ALH phenotype: anterior lymph heart; for ALS phenotype: anterior lymph sac; for PLV phenotype: posterior lymph vessels
Method: All chemicals were purchased from Sigma and 10-mM stock solutions in DMSO were prepared. Chemicals were used at a final concentration of 20 μM in screening medium to treat homozygous albino Xenopus embryos, which lack natural pigmentation. Chemical treatments of embryos (n=7 per well) was initiated at stage 31 (37 hpf) and terminated at stages 35/36 (50 hpf) or 42 (80 hpf). Embryos were fixed in 4% paraformaldehyde and processed for whole mount in situ hybridization.
Where albino embryos were used, the bleaching step was omitted. Semi-automated whole mount in situ hybridizations were performed using the Biolane HTI machine (Hölle & Hüttner AG, Germany). […] Images were captured using a stereomicroscope (SteREO Lumar V12; Carl Zeiss) equipped with a digital camera (AxioCam Color; Carl Zeiss). Composite figures were organized and labeled using Adobe Photoshop CS2 and Adobe Illustrator CS software.
Edema formation or late-stage lethality may result from excretory system defects, (cardio)vascular and/or lymphatic vascular pathologies. […] Embryos were fixed for in situ hybridization either at stage 35/36 to analyze vasculogenesis and intersomitic vein angiogenesis defects or at stage 42 to evaluate possible defects in lymph vessel development (FIGS. 3-5).

HUVEC [5] = assay: HUVEC cell proliferation assay; format: cell-based, human; conditions: 10 μM in 0.1% DMSO, 48 hours; for activity at 10 µM: Homo sapiens, HUVEC, 48 h, read-out: HUVEC proliferation
Method: as §1, §4, §5

Xenopus embryos = conditions: for Lethality: — = no stage of lethality given; for Onset (NF): onset of edema; for Embr. phen.: embryonic phenotype in the primary screen
How it was run: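 Stage 31 (37 hpf) Xenopus embryos, five per well, exposed to 20 µM compound in 1% DMSO at 23 °C for 4 days. Edema, lethality and other external phenotypes were scored daily by two investigators at stages 39, 41, 45 and 47.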

[6] = overnight, read-out: LEC tube formation
[7] = read-out: LEC tube formation (tube length)
[8] = overnight, read-out: HUVEC tube formation
[9] = read-out: HUVEC tube formation (tube length)
[10] = compounds causing edema, 20 μM, 1% DMSO, treatment from stage 31, scored to stage 47
[11] = 20 μM, 1% DMSO, treatment from stage 31, Nieuwkoop & Faber stage

Structure (SMILES) | activity at 1 µM (LEC [1]; [6]) [%] | activity at 1 µM (LEC [1]; [7]) [%] | activity at 1 µM (HUVEC [2]; [8]) [%] | activity at 1 µM (HUVEC [2]; [9]) [%] | activity at 10 µM (LEC [3]) [%] | blood vessel development phenotype (apj expression, in words) [4] | ISV phenotype ([4]; Xenopus embryos) | PCV phenotype ([4]; Xenopus embryos) | VVN phenotype ([4]; Xenopus embryos) | activity at 10 µM (HUVEC [5]) [%] | Lethality (NF) (Xenopus embryos; [10]) | Type of edema Pericordial (Xenopus embryos; embryonic stage) | Lethality (Xenopus embryos; embryonic stage) | Onset (NF) (Xenopus embryos; [11]) | lymph vessel development phenotype (vegfr3 expression, in words) [4] | ALH phenotype ([4]; Xenopus embryos) | ALS phenotype ([4]; Xenopus embryos) | PLV phenotype ([4]; Xenopus embryos) | LEC tube formation (LEC [1]; overnight) | HUVEC tube formation (HUVEC [2]; overnight) | further results
COC(=O)Nc1nc2ccc(C(=O)c3cccs3)cc2[nH]1 [Nocodazole] | < 50 | < 35 | < 50 | < 35 | 65 to 82 | interfered with blood vessel vasculogenesis and PCV assembly | impaired | hypoplastic | hypoplastic | 65 to 82 | 33/34 | 33/34 | 33/34 | 33/34 |  |  |  |  |  |  | 
CCn1c(=O)c2[nH]c(-c3ccccc3)nc2n(CC)c1=O [1,3-Diethyl-8-phenylxanthine] | 85 to 115 | 90 | 115 to 150 | 123 | 85 to 115 | hyperplasia of the VVN, while ISV angiogenesis occurred unaffected | normal | normal | hyperplastic | 85 to 115 | 45 NF | 41/42 | 45 embryonic stages according to Nieuwkoop and Faber (NF) | 41/42 | lymphangiogenesis was largely suppressed | stunted | stunted | hypoplastic |  |  | Type of edema Ventral (Xenopus embryos; embryonic stage, ‡ = edemas also detected in the gut): 41/42
O=c1c(-c2ccc(O)cc2)coc2cc(O)cc(O)c12 [Genistein, 5,7-Dihydroxy-3-(4-hydroxyphenyl)-4H-1-benzopyran-4-one] | 50 to 85 | 50 to 85 | 50 to 85 | 50 to 85 | 85 to 115 | stunted ISVs and hyperplastic VVN | stunted | normal | hyperplastic | 85 to 115 | 46 NF |  | 41/42 | 35/36 | lymphatic vessels and LECs were absent | impaired | impaired | impaired |  |  | edema or other phenotype in compound-treated Xenopus embryos/tadpoles (in words) (Xenopus embryos; 20 μM, 1% DMSO, treatment from stage 31): edemas localized to the tail tip; Type of edema Tail tip (Xenopus embryos; embryonic stage): 35/36
CCCCOC(=O)NS(=O)(=O)c1sc(CC(C)C)cc1-c1ccc(Cn2c(CC)nc3c(C)cc(C)nc32)cc1 [L-162,313] |  |  |  |  |  | potent inhibitors of developmental angiogenesis | impaired | normal | hypoplastic |  |  |  |  |  |  |  |  |  | − (−, moderate inhibition (50-85% of control):) | − (−, moderate inhibition (50-85% of control):) | LEC proliferation (LEC [3]): O (O, inactive or marginal effects (85-115% of control);); Lymphatic phenotype ([4]; Xenopus embryos): normal; HUVEC proliferation (HUVEC [5]): + (+, moderate promotion (>115-150% of control).); Lethality (NF) (Xenopus embryos; compounds causing lethality, 20 μM, 1% DMSO, treatment from stage 31, Nieuwkoop & Faber stage): 45 NF; Embr. phen. (Xenopus embryos): LET
Nc1ncnc2c1c(-c1ccc(Oc3ccccc3)cc1)cn2C1CCCC1 [7-Cyclopentyl-5-(4-phenoxy)phenyl-7H-pyrrolo[2,3-d]pyrimidin-4-ylamine] |  |  |  |  |  | interfered with angiogenic ISV sprouting but not with VVN assembly | stunted | normal | normal |  | 45 NF | 41/42 | 45 embryonic stages according to Nieuwkoop and Faber (NF) | 41/42 | lymphangiogenesis was strongly suppressed | impaired | impaired | hypoplastic | − − (− −, strong inhibition (<50% of control);) | − − (− −, strong inhibition (<50% of control);) | LEC proliferation (LEC [3]): O (O, inactive or marginal effects (85-115% of control);); HUVEC proliferation (HUVEC [5]): O (O, inactive or marginal effects (85-115% of control);); Embr. phen. (Xenopus embryos): EDE; Type of edema Pronephric (Xenopus embryos; embryonic stage): 41/42
COc1cc(OC)c(C=C2C(O)=Nc3ccccc32)c(OC)c1 [IC 261, 1,3-Dihydro-3-[(2,4,6-trimethoxyphenyl)methylene]-2H-indol-2-one] | 50 to 85 | 50 to 85 | 50 to 85 | 50 to 85 | 50 to 85 | interfered with blood vessel vasculogenesis and PCV assembly | impaired | hypoplastic | hypoplastic | 85 to 115 | 41/42 | 35/36 | 41/42 | 35/36 |  |  |  |  |  |  | effect on LEC proliferation (in words) (LEC [3]): inhibited preferentially LEC proliferation; Type of edema Proctodeal (Xenopus embryos; embryonic stage): 41/42; Type of edema Pronephric (Xenopus embryos; embryonic stage): 41/42
COc1cc2c(cc1O)CC[C@@H]1[C@@H]2CC[C@]2(C)[C@@H](O)CC[C@@H]12 [2-methoxyestradiol, 2-Hydroxyestradiol 2-methyl ether] |  |  |  |  |  |  | impaired | hypoplastic | hypoplastic |  | 33/34 | 33/34 | 33/34 | 33/34 |  |  |  |  | − (−, moderate inhibition (50-85% of control):) | − − (− −, strong inhibition (<50% of control);) | LEC tube formation (tube length) (LEC [1]): 80 % of control; HUVEC tube formation (tube length) (HUVEC [2]): 40 % of control; effect on HUVEC tube formation (in words) (HUVEC [2]): blocked tube formation preferentially in HUVEC cultures; LEC proliferation (LEC [3]): − (−, moderate inhibition (50-85% of control):); effect on LEC proliferation (in words) (LEC [3]): inhibited preferentially LEC proliferation; HUVEC proliferation (HUVEC [5]): O (O, inactive or marginal effects (85-115% of control);); scored in the phenotypic Xenopus screens (Xenopus embryos; 20 μM, known antiangiogenic compounds): active; Embr. phen. (Xenopus embryos): EDE

From patent publication US9945845B2, “Methods of screening using amphibians” (priority 2009, dated 2018)
